# Source: patent publication US11236086B2, “Substituted pyrrolopyridines as inhibitors of activin receptor-like kinase” (BLUEPRINT MEDICINES CORPORATION, priority 2017, dated 2022)
# Target: T1, ALK2R206H (mutant ALK2, N-terminally tagged with GST) (Homo sapiens, UniProt Q04771, R206H)
# T1 construct: purchased Carna Bioscience or ThermoFisher 09-148 or PV6232
# T1 sequence (Q04771 21-509 R206H): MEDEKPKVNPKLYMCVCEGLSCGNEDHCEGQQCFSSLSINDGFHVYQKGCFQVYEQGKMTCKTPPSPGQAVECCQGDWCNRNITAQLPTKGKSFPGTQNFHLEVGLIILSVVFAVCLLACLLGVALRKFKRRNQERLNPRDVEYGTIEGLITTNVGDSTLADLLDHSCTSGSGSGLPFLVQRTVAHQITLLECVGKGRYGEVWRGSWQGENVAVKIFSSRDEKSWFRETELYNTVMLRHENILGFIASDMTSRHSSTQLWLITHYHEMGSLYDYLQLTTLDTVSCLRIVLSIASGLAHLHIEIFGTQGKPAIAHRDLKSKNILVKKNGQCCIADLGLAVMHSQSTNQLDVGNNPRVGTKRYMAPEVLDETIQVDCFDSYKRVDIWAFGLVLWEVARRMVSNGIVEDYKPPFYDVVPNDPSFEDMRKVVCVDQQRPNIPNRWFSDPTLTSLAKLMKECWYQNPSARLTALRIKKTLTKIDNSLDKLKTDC
# Test: ALK binding assay (LANTHASCREEN TR-FRET competitive binding, displacement of Kinase Tracer 178)
# Conditions: read-out: Binding Assay (IC50 class)
# Method in brief: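 Competitive displacement of Kinase Tracer 178 (50 nM) from N-terminally GST-tagged mutant ALK2 R206H (2-5 nM) by compound, detected by TR-FRET with Eu-anti-GST antibody (4-10 nM). 30 min room temperature incubation, 1% DMSO final; normalized signal fitted to 4-parameter log dose response for IC50.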
row,SMILES,IC50
1,Cn1cc(-c2[nH]c3nccc(N4CCN(C(=O)C5CC5)CC4)c3c2C#N)cn1 [Compound 55],≤ 10 nM
2,N#Cc1c(-c2nc3c(s2)COCC3)[nH]c2nccc(N3CCN(C(=O)OC4CC4)CC3)c12 [Compound 395],≤ 10 nM
3,Cn1cnc(-c2cc3c(N4CCN(C(=O)OC5CCC5)CC4)ccnc3[nH]2)c1 [Compound 76],≤ 10 nM
4,CC(C)OC(=O)N1CCN(c2ccnc3[nH]c(-c4cnn(C)c4)c(Cl)c23)CC1 [Compound 186],≤ 10 nM
5,Cc1nc(-c2[nH]c3nccc(N4CCN(C(=O)OC5CC(F)(F)C5)CC4)c3c2C#N)cn1C [Compound 412],≤ 10 nM
6,CS(=O)(=O)N1CCc2nc(-c3cc4c(N5CCN(C(=O)OC6COC6)CC5)ccnc4[nH]3)sc2C1 [Compound 474],≤ 10 nM
7,CCOC(=O)N1CCN(c2ccnc3[nH]c(-c4cc(C)n(C)n4)cc23)CC1 [Compound 39],≤ 10 nM
8,Cc1nc(-c2cc3c(N4CCN(C(=O)OC5CS(=O)(=O)C5)CC4)ccnc3[nH]2)cs1 [Compound 387],≤ 10 nM
9,Cn1ccc(-c2cc3c(N4CCN(C(=O)OC5COC5)CC4)ccnc3[nH]2)n1 [Compound 91],≤ 10 nM
10,Cc1nc(-c2[nH]c3nccc(N4CCN(C(=O)OC5CCC5)CC4)c3c2C#N)cn1C [Compound 284],≤ 10 nM
11,Cn1cc(-c2cc3c(N4CCN(C(=O)OC5CCC5)CC4)ccnc3[nH]2)cn1 [Compound 77],≤ 10 nM
12,Cc1nc(-c2cc3c(N4CCN(C(=O)OC5CC5)CC4)ccnc3[nH]2)cn1C [Compound 75],≤ 10 nM
13,Cn1cc(-c2cc3c(N4CCN(C(=O)O[C@H]5C[C@@H](F)C5)CC4)ccnc3[nH]2)cn1 [Compound 161],≤ 10 nM
14,CCN1CCN(c2ccc(-c3cc4c(N5CCN(C(=O)C6CC6)CC5)ccnc4[nH]3)c(OC(F)F)c2)CC1 [Compound 475],≤ 10 nM
15,O=C(OC1COC1)N1CCN(c2ccnc3[nH]c(-c4ccc(C5(O)CCOCC5)cc4)cc23)CC1 [Compound 445],≤ 10 nM

# Further lines, results first:
row,IC50,SMILES
1,≤ 10 nM,Cc1ncc(-c2cc3c(N4CCN(C(=O)OC5COC5)CC4)ccnc3[nH]2)o1 [Compound 103]
2,≤ 10 nM,CC(C)c1ccc(-c2cc3c(N4CCN(C(=O)C5CC5)CC4)ccnc3[nH]2)cc1 [Compound 120]
3,≤ 10 nM,Cn1cc(-c2cc3c(N4CCN(C(=O)OC5CC(F)(F)C5)CC4)ccnc3[nH]2)cn1 [Compound 266]
4,≤ 10 nM,O=C(C1CC1)N1CCN(c2ccnc3[nH]c(-c4ccc(C5(F)CCCNC5)cc4)cc23)CC1 (centres unmarked) [Compound 390]
5,≤ 10 nM,CCN1CC[C@@H](c2ccc(-c3cc4c(N5CCN(C(=O)C6CC6)CC5)ccnc4[nH]3)cc2)C(F)(F)C1 [Compound 458]
6,≤ 10 nM,Cc1nc(-c2[nH]c3nccc(N4CCN(C(=O)O[C@H]5C[C@H](F)C5)CC4)c3c2C#N)cn1C [Compound 357]
7,≤ 10 nM,Cc1nc(-c2[nH]c3nccc(N4CCN(C(=O)O[C@H]5C[C@@H](F)C5)CC4)c3c2C#N)cn1C [Compound 356]
8,≤ 10 nM,CCOC(=O)N1CCN(c2ccnc3[nH]c(-c4cnn(C(F)F)c4)cc23)CC1 [Compound 125]
9,≤ 10 nM,Cn1cc(-c2cc3c(N4CCN(C(=O)OC5CC(F)(F)C5(F)F)CC4)ccnc3[nH]2)cn1 (centres unmarked) [Compound 399]
10,≤ 10 nM,CCOC(=O)N1CCN(c2ccnc3[nH]c(-c4ccc(C5(O)CCOCC5)cn4)cc23)CC1 [Compound 396]
11,≤ 10 nM,O=C(C1CC1)N1CCN(c2ccnc3[nH]c(-c4ccc(F)cc4)cc23)CC1 [Compound 19]
12,≤ 10 nM,CC#Cc1c(-c2cnn(C)c2)[nH]c2nccc(N3CCN(C(=O)OCC)CC3)c12 [Compound 132]
13,≤ 10 nM,Cc1nc(-c2[nH]c3nccc(N4CCN(C(=O)OC5COC5)CC4)c3c2C#N)cs1 [Compound 303]

# Target: T2, human ALK2 R206H (Homo sapiens, UniProt Q04771, R206H)
# T2 construct: expressed in transfected cells; host or cells: HEK293 (ATCC CRL1573), lentivirus transduction, blasticidin selection
# T2 sequence (Q04771 21-509 R206H): T1 sequence (Q04771 21-509 R206H)
# Test: Cell-based ALK2-R206H cell activity assay (Smad1-Ser463/Ser465 phosphorylation by AlphaLISA in HEK293-ALK2-R206H cells)
# Conditions: phospho-Smad1 AlphaLISA, read-out: Cell Line (Cell Assay, IC50 class)
# Method in brief: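 IC50 comes from a 10-point curve, scaled between DMSO and 1 μM LDN193189 controls, of lysate phospho-Smad1 (Ser463/465) measured by AlphaLISA. Compounds (top 10 μM or 1 μM, 3-fold steps, duplicates) were given 2-3 h to serum-starved HEK293 cells that stably express FLAG-tagged human ALK2 R206H.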
row,SMILES,IC50
1,Cn1cc(-c2[nH]c3nccc(N4CCN(C(=O)C5CC5)CC4)c3c2C#N)cn1 [Compound 55],100 to 500 nM
2,N#Cc1c(-c2nc3c(s2)COCC3)[nH]c2nccc(N3CCN(C(=O)OC4CC4)CC3)c12 [Compound 395],≤ 100 nM
3,Cn1cnc(-c2cc3c(N4CCN(C(=O)OC5CCC5)CC4)ccnc3[nH]2)c1 [Compound 76],≤ 100 nM
4,CC(C)OC(=O)N1CCN(c2ccnc3[nH]c(-c4cnn(C)c4)c(Cl)c23)CC1 [Compound 186],100 to 500 nM
5,Cc1nc(-c2[nH]c3nccc(N4CCN(C(=O)OC5CC(F)(F)C5)CC4)c3c2C#N)cn1C [Compound 412],≤ 100 nM
6,CS(=O)(=O)N1CCc2nc(-c3cc4c(N5CCN(C(=O)OC6COC6)CC5)ccnc4[nH]3)sc2C1 [Compound 474],≤ 100 nM
7,CCOC(=O)N1CCN(c2ccnc3[nH]c(-c4cc(C)n(C)n4)cc23)CC1 [Compound 39],100 to 500 nM
8,Cc1nc(-c2cc3c(N4CCN(C(=O)OC5CS(=O)(=O)C5)CC4)ccnc3[nH]2)cs1 [Compound 387],≤ 100 nM
9,Cn1ccc(-c2cc3c(N4CCN(C(=O)OC5COC5)CC4)ccnc3[nH]2)n1 [Compound 91],100 to 500 nM
10,Cc1nc(-c2[nH]c3nccc(N4CCN(C(=O)OC5CCC5)CC4)c3c2C#N)cn1C [Compound 284],≤ 100 nM
11,Cn1cc(-c2cc3c(N4CCN(C(=O)OC5CCC5)CC4)ccnc3[nH]2)cn1 [Compound 77],≤ 100 nM
12,Cc1nc(-c2cc3c(N4CCN(C(=O)OC5CC5)CC4)ccnc3[nH]2)cn1C [Compound 75],≤ 100 nM
13,Cn1cc(-c2cc3c(N4CCN(C(=O)O[C@H]5C[C@@H](F)C5)CC4)ccnc3[nH]2)cn1 [Compound 161],≤ 100 nM
14,CCN1CCN(c2ccc(-c3cc4c(N5CCN(C(=O)C6CC6)CC5)ccnc4[nH]3)c(OC(F)F)c2)CC1 [Compound 475],≤ 100 nM
15,O=C(OC1COC1)N1CCN(c2ccnc3[nH]c(-c4ccc(C5(O)CCOCC5)cc4)cc23)CC1 [Compound 445],≤ 100 nM

# The remaining lines, values ahead:
row,IC50,SMILES
1,100 to 500 nM,Cc1ncc(-c2cc3c(N4CCN(C(=O)OC5COC5)CC4)ccnc3[nH]2)o1 [Compound 103]
2,100 to 500 nM,CC(C)c1ccc(-c2cc3c(N4CCN(C(=O)C5CC5)CC4)ccnc3[nH]2)cc1 [Compound 120]
3,≤ 100 nM,Cn1cc(-c2cc3c(N4CCN(C(=O)OC5CC(F)(F)C5)CC4)ccnc3[nH]2)cn1 [Compound 266]
4,≤ 100 nM,O=C(C1CC1)N1CCN(c2ccnc3[nH]c(-c4ccc(C5(F)CCCNC5)cc4)cc23)CC1 (centres unmarked) [Compound 390]
5,≤ 100 nM,CCN1CC[C@@H](c2ccc(-c3cc4c(N5CCN(C(=O)C6CC6)CC5)ccnc4[nH]3)cc2)C(F)(F)C1 [Compound 458]
6,≤ 100 nM,Cc1nc(-c2[nH]c3nccc(N4CCN(C(=O)O[C@H]5C[C@H](F)C5)CC4)c3c2C#N)cn1C [Compound 357]
7,≤ 100 nM,Cc1nc(-c2[nH]c3nccc(N4CCN(C(=O)O[C@H]5C[C@@H](F)C5)CC4)c3c2C#N)cn1C [Compound 356]
8,≤ 100 nM,CCOC(=O)N1CCN(c2ccnc3[nH]c(-c4cnn(C(F)F)c4)cc23)CC1 [Compound 125]
9,100 to 500 nM,Cn1cc(-c2cc3c(N4CCN(C(=O)OC5CC(F)(F)C5(F)F)CC4)ccnc3[nH]2)cn1 (centres unmarked) [Compound 399]
10,≤ 100 nM,CCOC(=O)N1CCN(c2ccnc3[nH]c(-c4ccc(C5(O)CCOCC5)cn4)cc23)CC1 [Compound 396]
11,100 to 500 nM,O=C(C1CC1)N1CCN(c2ccnc3[nH]c(-c4ccc(F)cc4)cc23)CC1 [Compound 19]
12,≤ 100 nM,CC#Cc1c(-c2cnn(C)c2)[nH]c2nccc(N3CCN(C(=O)OCC)CC3)c12 [Compound 132]
13,≤ 100 nM,Cc1nc(-c2[nH]c3nccc(N4CCN(C(=O)OC5COC5)CC4)c3c2C#N)cs1 [Compound 303]
